ChEMBL document CHEMBL5316331, “Modulating Cytotoxicity with Lego-like Chemistry: Upgrading Mitochondriotropic Antioxidants with Prototypical Cationic Carrier Bricks” (J Med Chem, 2023)
Active and inactive are the calls of the source. The calls are words filed in the database; no cut-off is given here.

Columns and labels:
SH-SY5Y [1] = assay: Effect on cell death pathway in human SH-SY5Y cells assessed as decrease in early apoptotic cells at 50 uM incubated for 24 hrs by Annexin V-FITC/PI staining based microscopy; format: functional
SH-SY5Y [2] = assay: Neuroprotective activity against tBHP-induced human SH-SY5Y cells assessed as increase in cell viability at 50 uM preincubated for 30 mins followed by t-BHP addition and measured after 24 hrs by SRB assay; format: functional, cell-based; conditions: time 24.5 hrs
SH-SY5Y [3] = assay: Antioxidant activity against human SH-SY5Y cells assessed as increase in ATP production-linked respiration at 10 uM incubated for 24 hrs followed by addition of oligomycin/FCCP/antimycin A /rotenone by Cell Mito stress assay based seahorse XF96 flux analyzer; format: functional
SH-SY5Y [4] = assay: Neuroprotective activity against tBHP-induced human SH-SY5Y cells assessed as increase in cell viability at 10 uM preincubated for 30 mins followed by t-BHP addition at 15 uM and measured after 24 hrs by neutral dye uptake assay relative to control; format: functional; conditions: time 24.5 hrs
[5] = Drug uptake in C57BL/6J mouse liver mitochondria at 5 uM in presence of succinate by UPLC analysis; format: ADME
[6] = Dissociation constant, pKa of the compound by UV-vis spectrophotometric analysis; format: physicochemical
SH-SY5Y [7] = assay: Effect on cell death pathway in human SH-SY5Y cells assessed as decrease in early apoptotic cells at 10 uM incubated for 24 hrs by Annexin V-FITC/PI staining based microscopy; format: functional
SH-SY5Y [8] = assay: Effect on cell mitochondrial mass in human SH-SY5Y cells assessed as reduction on mitochondrial mass at 50 uM incubated for 24 hrs by mito-tracker green dye based flow cytometry; format: functional; design: scale not given: the % may be the effect or the level left
SH-SY5Y [9] = assay: Antioxidant activity against human SH-SY5Y cells assessed as increase in spare respiratory capacity at 10 uM incubated for 24 hrs followed by addition of oligomycin/FCCP/antimycin A /rotenone by Cell Mito stress assay based seahorse XF96 flux analyzer; format: functional
SH-SY5Y [10] = assay: Cytotoxicity against human SH-SY5Y cells incubated for 48 hrs; format: toxicity, cell-based
SH-SY5Y [11] = assay: Neuroprotective activity against tBHP-induced human SH-SY5Y cells assessed as increase in cell viability at 50 uM preincubated for 30 mins followed by t-BHP addition at 15 uM and measured after 24 hrs by neutral dye uptake assay relative to control; format: functional; conditions: time 24.5 hrs
SH-SY5Y [12] = assay: Antioxidant activity against human SH-SY5Y cells assessed as increase in basal respiration at 10 uM incubated for 24 hrs followed by addition of oligomycin/FCCP/antimycin A /rotenone by Cell Mito stress assay based seahorse XF96 flux analyzer; format: functional
[13] = Cytotoxicity against human SH-SY5Y cells assessed as cell viability incubated for 24 hrs; format: toxicity, cell-based; conditions: read-out: Activity
SH-SY5Y [14] = assay: Effect on cell death pathway in human SH-SY5Y cells assessed as decrease in necrotic cells at 50 uM incubated for 24 hrs by Annexin V-FITC/PI staining based microscopy; format: functional
SH-SY5Y [15] = assay: Induction of mitochondrial membrane polarization in human SH-SY5Y cells at 10 uM incubated for 24 hrs by JC-1 staining based fluorescence assay; format: functional
[16] = Cytotoxicity against human HepG2 cells assessed as cell viability incubated for 24 hrs; format: toxicity, cell-based; conditions: read-out: Activity
HepG2 = assay: Cytotoxicity against human HepG2 cells assessed as increase in cell viability at 10 to 100 uM incubated for 24 hrs; format: toxicity, cell-based; conditions: hepg2, 24 h, dose 10-100 µM
SH-SY5Y [17] = assay: Neuroprotective activity against tBHP-induced human SH-SY5Y cells assessed as increase in cell viability at 50 uM preincubated for 30 mins followed by t-BHP addition at 30 uM and measured after 24 hrs by neutral dye uptake assay relative to control; format: functional; conditions: time 24.5 hrs
SH-SY5Y [18] = assay: Antioxidant activity against human SH-SY5Y cells assessed as increase in basal OCR at 10 uM incubated for 24 hrs followed by addition of oligomycin/FCCP/antimycin A /rotenone by Cell Mito stress assay based seahorse XF96 flux analyzer; format: functional
SH-SY5Y [19] = assay: Antioxidant activity against human SH-SY5Y cells assessed as effect on intracellular ATP level at 50 uM incubated for 24 hrs followed by addition of oligomycin/FCCP/antimycin A /rotenone by Cell Mito stress assay based seahorse XF96 flux analyzer; format: functional
SH-SY5Y [20] = assay: Effect on cell death pathway in human SH-SY5Y cells assessed as decrease in necrotic cells at 10 uM incubated for 24 hrs by Annexin V-FITC/PI staining based microscopy; format: functional
SH-SY5Y [21] = assay: Neuroprotective activity against H2O2-induced human SH-SY5Y cells assessed as increase in cell viability at 50 uM preincubated for 30 mins followed by H2O2 addition and measured after 24 hrs by SRB assay; format: functional, cell-based; conditions: time 24.5 hrs
SH-SY5Y [22] = assay: Induction of mitochondrial membrane polarization in human SH-SY5Y cells at 50 uM incubated for 24 hrs by JC-1 staining based fluorescence assay; format: functional
SH-SY5Y [23] = assay: Cytotoxicity against human SH-SY5Y cells assessed as increase in cell viability at 10 to 100 uM incubated for 24 hrs; format: toxicity, cell-based; conditions: dose 10-100 µM
SH-SY5Y [24] = assay: Neuroprotective activity against H2O2-induced human SH-SY5Y cells assessed as increase in cell viability at 10 uM preincubated for 30 mins followed by H2O2 addition and measured after 24 hrs by SRB assay; format: functional, cell-based; conditions: time 24.5 hrs
SH-SY5Y [25] = assay: Antioxidant activity against human SH-SY5Y cells assessed as increase in maximal respiration at 10 uM incubated for 24 hrs followed by addition of oligomycin/FCCP/antimycin A /rotenone by Cell Mito stress assay based seahorse XF96 flux analyzer; format: functional
SH-SY5Y [26] = assay: Effect on cell death pathway in human SH-SY5Y cells assessed as decrease in late apoptotic cells at 10 uM incubated for 24 hrs by Annexin V-FITC/PI staining based microscopy; format: functional
[27] = Drug uptake in C57BL/6J mouse liver mitochondria at 5 uM in presence of rotenone by UPLC analysis; format: ADME
SH-SY5Y [28] = assay: Effect on cell death pathway in human SH-SY5Y cells assessed as decrease in late apoptotic cells at 50 uM incubated for 24 hrs by Annexin V-FITC/PI staining based microscopy; format: functional
SH-SY5Y [29] = assay: Antioxidant activity against human SH-SY5Y cells assessed as increase in basal ECAR at 10 uM incubated for 24 hrs followed by addition of oligomycin/FCCP/antimycin A /rotenone by Cell Mito stress assay based seahorse XF96 flux analyzer; format: functional
SH-SY5Y [30] = assay: Neuroprotective activity against tBHP-induced human SH-SY5Y cells assessed as increase in cell viability at 10 uM preincubated for 30 mins followed by t-BHP addition and measured after 24 hrs by SRB assay; format: functional, cell-based; conditions: time 24.5 hrs
[31] = Drug uptake in C57BL/6J mouse liver mitochondria at 5 uM in presence of FCCP by UPLC analysis; format: ADME

Q: For `CS(=O)(=O)[O-].O=C(/C=C/c1ccc(O)c(O)c1)NCCCCCCCCCC[n+]1ccc2ccccc2c1`, which Activity (SH-SY5Y [1]) is on record?
A: The Activity was “Active”.

Q: What about the Activity (SH-SY5Y [2]) of the same molecule?
A: The Activity was “Active”.

Q: What about the Activity (SH-SY5Y [3]) of the same molecule?
A: Its Activity is “Active”.

Q: What about the Activity (SH-SY5Y [4]) of the same molecule?
A: The Activity was 85.6%.

Q: And the Drug uptake [5]?
A: The Drug uptake was ~ 25%.

Q: And the pKa [6]?
A: The pKa was 8.45.

Q: What about the Activity (SH-SY5Y [7]) of the same molecule?
A: Its Activity is “Active”.

Q: And the Activity (SH-SY5Y [8])?
A: The Activity was 86.8%.

Q: And the Activity (SH-SY5Y [9])?
A: The Activity was “Active”.

Q: What about the Activity (SH-SY5Y [10]) of the same molecule?
A: Its Activity is “Non-Toxic”.

Q: And the Activity (SH-SY5Y [11])?
A: Its Activity is 89.7%.

Q: What about the Activity (SH-SY5Y [12]) of the same molecule?
A: The Activity was “Active”.

Q: And the viability at 24 h [13]?
A: Its viability at 24 h is at least 85%.

Q: What about the Activity (SH-SY5Y [14]) of the same molecule?
A: Its Activity is “Active”.

Q: And the Activity (SH-SY5Y [15])?
A: Its Activity is “inactive”.

Q: And the viability at 24 h [16]?
A: The viability at 24 h was at least 85%.

Q: What about the Activity (HepG2) of the same molecule?
A: Its Activity is “Non-Toxic”.

Q: And the Activity (SH-SY5Y [17])?
A: The Activity was 59.6%.

Q: What about the Activity (SH-SY5Y [18]) of the same molecule?
A: The Activity was “Active”.

Q: And the Activity (SH-SY5Y [19])?
A: Its Activity is 87.9%.

Q: And the Activity (SH-SY5Y [20])?
A: Its Activity is “Active”.

Q: What about the Activity (SH-SY5Y [21]) of the same molecule?
A: Its Activity is “inactive”.

Q: And the Activity (SH-SY5Y [22])?
A: Its Activity is 81.5%.

Q: And the Activity (SH-SY5Y [23])?
A: The Activity was “Non-Toxic”.

Q: What about the Activity (SH-SY5Y [24]) of the same molecule?
A: Its Activity is “inactive”.

Q: What about the Activity (SH-SY5Y [25]) of the same molecule?
A: Its Activity is “Active”.

Q: And the Activity (SH-SY5Y [26])?
A: Its Activity is “Active”.

Q: And the Drug uptake [27]?
A: The Drug uptake was “Not Active”.

Q: What about the Activity (SH-SY5Y [28]) of the same molecule?
A: Its Activity is “Active”.

Q: And the Activity (SH-SY5Y [29])?
A: The Activity was “Active”.

Q: And the Activity (SH-SY5Y [30])?
A: The Activity was “Active”.

Q: And the Drug uptake [31]?
A: The Drug uptake was “Active”.
